Where only a bound is given, the exact number is not on record here.

This assay deals with T1, human GPR17 receptor (Homo sapiens, UniProt Q13304).
T1 construct: host or cells: HEK-293
T1 sequence (Q13304 whole entry): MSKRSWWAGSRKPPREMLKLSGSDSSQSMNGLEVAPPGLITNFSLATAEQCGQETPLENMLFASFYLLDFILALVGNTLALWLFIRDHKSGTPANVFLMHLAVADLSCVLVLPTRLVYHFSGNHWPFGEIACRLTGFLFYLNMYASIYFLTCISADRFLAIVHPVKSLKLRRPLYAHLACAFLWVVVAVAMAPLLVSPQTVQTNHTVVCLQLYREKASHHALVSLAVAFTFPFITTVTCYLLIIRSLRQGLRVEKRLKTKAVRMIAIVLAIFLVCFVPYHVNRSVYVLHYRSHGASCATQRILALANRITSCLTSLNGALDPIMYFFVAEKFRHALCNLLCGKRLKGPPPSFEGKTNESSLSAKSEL
The assay is described as follows: Calcium mobilization functional assay (Fluo-8, FLIPR TETRA) in HEK-293 hGPR17 (Gα-q assay). Format: cell-based. To be noted: antagonism of MDL29,951 (~EC80) induced Ca2+ signal; cell line (HEK-293 hGPR17 or HEK-293 Suchi5 hGPR17) not given. Summed up:
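Fluo-8-loaded HEK-293 hGPR17 cells (60 min dye loading, room temperature) were preincubated with compound for twenty minutes, then challenged with agonist MDL29,951 at ~EC80, 500 nM. Intracellular calcium release via Gα-q was recorded as FLIPR fluorescence for a further 2 minutes; compounds tested in duplicate.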
A word on the IC50: it is the midpoint of a concentration-inhibition curve. As for `Cc1cc(NS(=O)(=O)c2c[nH]c(-c3ccccn3)c2)c(F)cc1C(F)(F)F` [Cpd 336, N-[2-fluoro-5-methyl-4-(trifluoromethyl)phenyl]-5-(2-pyridyl)-1H-pyrrole-3-sulfonamide], the IC50 was 500 to 5000 nM.
As to `Cc1cccc(-c2cc(S(=O)(=O)Nc3cc(F)c(C(F)(F)F)cc3F)c[nH]2)c1` [Cpd 337, N-[2,5-difluoro-4-(trifluoromethyl)phenyl]-5-(m-tolyl)-1H-pyrrole-3-sulfonamide], the IC50 lay within 500 to 5000 nM.
With `Cc1cc(NS(=O)(=O)c2c[nH]c(-c3ccccc3)c2)c(F)cc1C(F)(F)F` [Cpd 338, N-[2-fluoro-5-methyl-4-(trifluoromethyl)phenyl]-5-phenyl-1H-pyrrole-3-sulfonamide], the IC50 is 500 to 5000 nM.
To `O=S(=O)(Nc1cc(F)c(C(F)(F)F)cc1F)c1c[nH]c(-c2nccs2)c1` [Cpd 339, N-[2,5-difluoro-4-(trifluoromethyl)phenyl]-5-thiazol-2-yl-1H-pyrrole-3-sulfonamide] belongs less than 500 nM.
In the case of `N#Cc1ccc(NS(=O)(=O)c2c[nH]cc2Cc2cccc(OC3CC3)c2)c(F)c1` [Cpd 340, N-(4-cyano-2-fluoro-phenyl)-4-[[3-(cyclopropoxy)phenyl]methyl]-1H-pyrrole-3-sulfonamide] it was 500 to 5000 nM; in that of `CC(C)Oc1cccc(Cc2c[nH]cc2S(=O)(=O)Nc2ccc(C#N)cc2F)c1` [Cpd 341, N-(4-cyano-2-fluoro-phenyl)-4-[(3-isopropoxyphenyl)methyl]-1H-pyrrole-3-sulfonamide], 500 to 5000 nM.
To `N#Cc1ccc(NS(=O)(=O)c2c[nH]cc2Cc2cccc(OCC3CC3)c2)c(F)c1` [Cpd 342, N-(4-cyano-2-fluoro-phenyl)-4-[[3-(cyclopropylmethoxy)phenyl]methyl]-1H-pyrrole-3-sulfonamide] belongs 500 to 5000 nM; to `N#Cc1ccc(NS(=O)(=O)c2c[nH]cc2Cc2cccs2)c(F)c1` [Cpd 343, N-(4-cyano-2-fluoro-phenyl)-4-(2-thienylmethyl)-1H-pyrrole-3-sulfonamide], less than 500 nM.
Regarding `O=S(=O)(Nc1cc(F)c(C(F)(F)F)cc1F)c1c[nH]c(-c2cccc(C(F)(F)F)n2)c1` [Cpd 344, N-[2,5-difluoro-4-(trifluoromethyl)phenyl]-5-[6-(trifluoromethyl)-2-pyridyl]-1H-pyrrole-3-sulfonamide], the IC50 is 500 to 5000 nM.
In the case of `O=S(=O)(Nc1cc(F)c(C(F)(F)F)cc1F)c1c[nH]c(-c2ccc(Br)cn2)c1` [Cpd 345, 5-(5-bromo-2-pyridyl)-N-[2,5-difluoro-4-(trifluoromethyl)phenyl]-1H-pyrrole-3-sulfonamide], the concentration for half-maximal inhibition (IC50) lay in the range of 500 to 5000 nM.
Take `O=S(=O)(Nc1cc(F)c(C(F)(F)F)cc1F)c1c[nH]c(-c2ncccc2Br)c1` [Cpd 346, 5-(3-bromo-2-pyridyl)-N-[2,5-difluoro-4-(trifluoromethyl)phenyl]-1H-pyrrole-3-sulfonamide]: the IC50 is less than 500 nM.
In the case of `N#Cc1ccc(NS(=O)(=O)c2c[nH]c(-c3ccc(F)cn3)c2)c(F)c1` [Cpd 347, N-(4-cyano-2-fluoro-phenyl)-5-(5-fluoro-2-pyridyl)-1H-pyrrole-3-sulfonamide] it was 500 to 5000 nM.
Consider `Cc1cccnc1-c1cc(S(=O)(=O)Nc2ccc(C#N)cc2F)c[nH]1` [Cpd 348, N-(4-cyano-2-fluoro-phenyl)-5-(3-methyl-2-pyridyl)-1H-pyrrole-3-sulfonamide], for which the IC50 was less than 500 nM.
To `N#Cc1ccc(NS(=O)(=O)c2c[nH]c(-c3ncccc3Cl)c2)c(F)c1` [Cpd 349, 5-(3-chloro-2-pyridyl)-N-(4-cyano-2-fluoro-phenyl)-1H-pyrrole-3-sulfonamide] belongs less than 500 nM; to `N#Cc1ccc(NS(=O)(=O)c2c[nH]c(-c3ncccc3Br)c2)c(F)c1` [Cpd 350, 5-(3-bromo-2-pyridyl)-N-(4-cyano-2-fluoro-phenyl)-1H-pyrrole-3-sulfonamide], less than 500 nM; to `O=S(=O)(Nc1cc(F)c(C(F)(F)F)cc1F)c1c[nH]c(-c2ccccc2Cl)c1` [Cpd 351, 5-(2-chlorophenyl)-N-[2,5-difluoro-4-(trifluoromethyl)phenyl]-1H-pyrrole-3-sulfonamide], 500 to 5000 nM.
In the case of `COc1cc(F)ccc1-c1cc(S(=O)(=O)Nc2ccc(C#N)cc2F)c[nH]1` [Cpd 352, N-(4-cyano-2-fluoro-phenyl)-5-(4-fluoro-2-methoxy-phenyl)-1H-pyrrole-3-sulfonamide] it was 500 to 5000 nM; in that of `N#Cc1cc(F)c(NS(=O)(=O)c2c[nH]c(-c3ccccn3)c2)cc1F` [Cpd 353, N-(4-cyano-2,5-difluoro-phenyl)-5-(2-pyridyl)-1H-pyrrole-3-sulfonamide], less than 500 nM; in that of `N#Cc1cc(F)c(NS(=O)(=O)c2c[nH]c(-c3ccccn3)c2)c(F)c1` [Cpd 354, N-(4-cyano-2,6-difluoro-phenyl)-5-(2-pyridyl)-1H-pyrrole-3-sulfonamide], 500 to 5000 nM.
In the case of `N#Cc1ccccc1-c1cc(S(=O)(=O)Nc2cc(F)c(C(F)(F)F)cc2F)c[nH]1` [Cpd 355, 5-(2-cyanophenyl)-N-[2,5-difluoro-4-(trifluoromethyl)phenyl]-1H-pyrrole-3-sulfonamide] it was 500 to 5000 nM; in that of `O=S(=O)(Nc1cc(F)c(C(F)(F)F)cc1F)c1c[nH]c(-c2cccc(Cl)c2)c1` [Cpd 356, 5-(3-chlorophenyl)-N-[2,5-difluoro-4-(trifluoromethyl)phenyl]-1H-pyrrole-3-sulfonamide], 500 to 5000 nM.
As to `N#Cc1cc(F)c(NS(=O)(=O)c2c[nH]c(-c3ccccn3)c2)cc1Cl` [Cpd 357, N-(5-chloro-4-cyano-2-fluoro-phenyl)-5-(2-pyridyl)-1H-pyrrole-3-sulfonamide], the IC50 is less than 500 nM.
With `N#Cc1ccc(NS(=O)(=O)c2c[nH]c(C3=CCCCC3)c2)c(F)c1` [Cpd 358, N-(4-cyano-2-fluoro-phenyl)-5-(cyclohexen-1-yl)-1H-pyrrole-3-sulfonamide], the IC50 is less than 500 nM.
`O=S(=O)(Nc1cc(F)c(Br)cc1F)c1c[nH]cc1-c1cccc(F)c1` [Cpd 359, N-(4-bromo-2,5-difluoro-phenyl)-4-(3-fluorophenyl)-1H-pyrrole-3-sulfonamide]: the IC50 was 500 to 5000 nM.
To `O=S(=O)(Nc1cc(F)c(OC(F)F)cc1F)c1c[nH]cc1-c1cccc(F)c1` [Cpd 360, N-[4-(difluoromethoxy)-2,5-difluoro-phenyl]-4-(3-fluorophenyl)-1H-pyrrole-3-sulfonamide] belongs less than 500 nM.
In the case of `O=S(=O)(Nc1cc(F)c(C(F)(F)F)cc1F)c1c[nH]c(-c2ccccc2C(F)(F)F)c1` [Cpd 361, N-[2,5-difluoro-4-(trifluoromethyl)phenyl]-5-[2-(trifluoromethyl)phenyl]-1H-pyrrole-3-sulfonamide] it was 500 to 5000 nM.
In the case of `O=S(=O)(Nc1cc(F)c(C(F)(F)F)cc1F)c1c[nH]c(-c2ccc(Cl)cc2F)c1` [Cpd 362, 5-(4-chloro-2-fluoro-phenyl)-N-[2,5-difluoro-4-(trifluoromethyl)phenyl]-1H-pyrrole-3-sulfonamide] it was 5000 to 50000 nM.
As for `O=S(=O)(Nc1cc(F)c(C(F)(F)F)cc1F)c1c[nH]c(-c2c(F)cccc2Cl)c1` [Cpd 363, 5-(2-chloro-6-fluoro-phenyl)-N-[2,5-difluoro-4-(trifluoromethyl)phenyl]-1H-pyrrole-3-sulfonamide], the IC50 was 500 to 5000 nM.
Turning to `O=S(=O)(Nc1cc(F)c(C(F)(F)F)cc1F)c1c[nH]cc1-c1cccc(F)c1` [Cpd 364, N-[2,5-difluoro-4-(trifluoromethyl)phenyl]-4-(3-fluorophenyl)-1H-pyrrole-3-sulfonamide], the IC50 is 500 to 5000 nM.
In the case of `O=S(=O)(Nc1cc(F)c(C(F)(F)F)cc1F)c1c[nH]c(-c2cccc(C(F)(F)F)c2)c1` [Cpd 365, N-[2,5-difluoro-4-(trifluoromethyl)phenyl]-5-[3-(trifluoromethyl)phenyl]-1H-pyrrole-3-sulfonamide] it was 500 to 5000 nM; in that of `O=S(=O)(Nc1cc(F)c(C(F)(F)F)cc1F)c1c[nH]c(-c2ccc(F)cc2F)c1` [Cpd 366, 5-(2,4-difluorophenyl)-N-[2,5-difluoro-4-(trifluoromethyl)phenyl]-1H-pyrrole-3-sulfonamide], 500 to 5000 nM.
For the molecule `CSc1cccc(Cc2c[nH]cc2S(=O)(=O)Nc2ccc(C#N)cc2F)c1` [Cpd 367, N-(4-cyano-2-fluoro-phenyl)-4-[(3-methylsulfanylphenyl)methyl]-1H-pyrrole-3-sulfonamide], the half-maximal inhibitory concentration (IC50) was less than 500 nM.
In the case of `COCc1cccc(Cc2c[nH]cc2S(=O)(=O)Nc2ccc(C#N)cc2F)c1` [Cpd 368, N-(4-cyano-2-fluoro-phenyl)-4-[[3-(methoxymethyl)phenyl]methyl]-1H-pyrrole-3-sulfonamide] it was 500 to 5000 nM; in that of `O=S(=O)(Nc1cc(F)c(C(F)(F)F)cc1F)c1c[nH]c(-c2ccc(C(F)(F)F)cn2)c1` [Cpd 369, N-[2,5-difluoro-4-(trifluoromethyl)phenyl]-5-[5-(trifluoromethyl)-2-pyridyl]-1H-pyrrole-3-sulfonamide], 5000 to 50000 nM.
Regarding `O=S(=O)(Nc1cc(F)c(C(F)(F)F)cc1F)c1c[nH]c(-c2cc(C(F)(F)F)ccn2)c1` [Cpd 370, N-[2,5-difluoro-4-(trifluoromethyl)phenyl]-5-[4-(trifluoromethyl)-2-pyridyl]-1H-pyrrole-3-sulfonamide], the IC50 is 5000 to 50000 nM.
In the case of `O=S(=O)(Nc1cc(F)c(C(F)(F)F)cc1F)c1c[nH]c(-c2cccc(Br)n2)c1` [Cpd 371, 5-(6-bromo-2-pyridyl)-N-[2,5-difluoro-4-(trifluoromethyl)phenyl]-1H-pyrrole-3-sulfonamide], the IC50 is 500 to 5000 nM.
In the case of `N#Cc1ccc(NS(=O)(=O)c2c[nH]c(-c3cccc(Cl)n3)c2)c(F)c1` [Cpd 372, 5-(6-chloro-2-pyridyl)-N-(4-cyano-2-fluoro-phenyl)-1H-pyrrole-3-sulfonamide] it was less than 500 nM.

The values above are taken from patent US20240299385A1 (ReWind Therapeutics NV, priority 2021, published 2024).
